In ChEMBL document CHEMBL3286190, “Discovery of antitubulin agents with antiangiogenic activity as single entities with multitarget chemotherapy potential” (ACS Med Chem Lett, 2014):
Active and inactive are the calls of the source. No cut-off for these calls is given here.

How the values were obtained:
[1] = tested on: MDA-MB-435; test: Antitumor activity against human MDA-MB-435 cells xenografted into flank of athymic BALBc/J mouse assessed as decrease in tumor vascular density at 35 mg/kg twice weekly by CD31/PECAM-1 immunohistochemical staining; format: functional, organism-based; parameters: dose 35 mg/kg
[2] = tested on: Mus musculus; test: Toxicity in athymic BALBc/J mouse xenografted with human MDA-MB-435 cells assessed as body weight at 35 mg/kg twice weekly; format: organism-based; parameters: dose 35 mg/kg; conditions: in vivo
[3] = tested on: Mus musculus; test: Toxicity in BALBc/J mouse allografted with mouse 4T1 cells at 35 mg/kg twice weekly measured up to 32 days; format: organism-based; parameters: dose 35 mg/kg; conditions: in vivo, 768 h
[4] = tested on: MDA-MB-435; test: Antitumor activity against human MDA-MB-435 cells xenografted into flank of […] assessed as decrease in tumor growth at 35 mg/kg twice weekly measured up to 34 days; format: functional, organism-based; parameters: dose 35 mg/kg
[5] = tested on: 4T1; test: Antitumor activity against mouse 4T1 cells expressing luciferase allografted in BALBc/J mouse assessed as suppression of tumor growth at 35 mg/kg twice weekly measured up to 30 days; format: functional, organism-based; parameters: dose 35 mg/kg
[6] = tested on: Mus musculus; test: Toxicity in athymic NCr mouse xenografted with human cells at 35 mg/kg twice weekly measured up to 34 days; conditions: in vivo, 816 h
[7] = tested on: 4T1; test: Antitumor activity against ip dosed mouse 4T1 cells expressing luciferase allografted in BALBc/J mouse assessed as reduction in lung metastases at 35 mg/kg twice weekly measured after 32 days; format: functional, organism-based; parameters: dose 35 mg/kg
[8] = tested on: U-251; test: Antitumor activity against human U251 cells xenografted into athymic NCr mouse assessed as decrease in tumor growth at 35 mg/kg twice weekly measured up to 34 days; format: functional, organism-based; parameters: dose 35 mg/kg
[9] = target: Tubulin (Bos taurus, UniProt Q6B856+Q862L2+Q862F3); test: Inhibition of bovine brain tubulin assembly preincubated for 15 mins followed by GTP addition measured for 20 mins by spectrophotometry
[10] = Growth inhibition of human OVCAR8 cells after 96 hrs incubation by sulforhodamine B technique; format: functional, cell-based; conditions: OVCAR-8, 96 h
[11] = tested on: NCI/ADR-RES; test: Growth inhibition of human NCI/ADR-RES cells overexpressing P-gp after 96 hrs incubation by sulforhodamine B technique; format: functional, cell-based
[12] = tested on: Mus musculus; test: Toxicity in BALBc/J mouse allografted with mouse 4T1 cells at 25 mg/kg twice weekly measured up to 32 days; format: organism-based; parameters: dose 25 mg/kg; conditions: in vivo, 768 h
[13] = tested on: Chorioallantoic membrane; test: tissue or blood; conditions: Gallus gallus
Description: Antiangiogenic activity in chicken chorioallantoic membrane assessed as inhibition of VEGF/bFGF-induced angiogenesis treated 8 hrs after VEGF/bFGF addition measured after 40 hrs by microscopy

[14] = tested on: MDA-MB-435; test: Induction of apoptosis in human MDA-MB-435 cells assessed as PARP cleavage at IC50 concentration after 48 hrs by Western blotting analysis; format: functional, cell-based
[15] = tested on: U-251; conditions: Homo sapiens, 25 mg/kg
Description: Antitumor activity against human U251 cells xenografted into athymic NCr mouse assessed as decrease in tumor growth at 25 mg/kg twice weekly measured up to 34 days

[16] = tested on: HeLa; test: Growth inhibition of wild type human HeLa cells after 96 hrs incubation by sulforhodamine B technique; format: functional, cell-based
[17] = tested on: MDA-MB-435; test: Induction of apoptosis in human MDA-MB-435 cells assessed as caspase 3 cleavage at IC50 concentration after 48 hrs by Western blotting analysis; format: functional, cell-based
[18] = tested on: MDA-MB-435; conditions: Homo sapiens, 25 mg/kg
Description: Antitumor activity against human MDA-MB-435 cells xenografted into flank of athymic BALBc/J mouse assessed as decrease in tumor vascular density at 25 mg/kg twice weekly by CD31/PECAM-1 immunohistochemical staining

[19] = tested on: 4T1; conditions: Mus musculus, 25 mg/kg
Description: Antitumor activity against ip dosed mouse 4T1 cells expressing luciferase allografted in BALBc/J mouse assessed as reduction in lung metastases at 25 mg/kg twice weekly measured after 32 days

[20] = tested on: MDA-MB-435; conditions: Homo sapiens, 25 mg/kg; remark: listed apart in the source
Description: Antitumor activity against human MDA-MB-435 cells xenografted into flank of athymic BALBc/J mouse assessed as decrease in tumor growth at 25 mg/kg twice weekly measured up to 34 days

[21] = tested on: Mus musculus; test: Toxicity in athymic NCr mouse xenografted with human U251 cells at 25 mg/kg twice weekly measured up to 34 days; format: organism-based, U-251; parameters: dose 25 mg/kg; conditions: in vivo, 816 h
[22] = tested on: Mus musculus; test: Toxicity in athymic BALBc/J mouse xenografted with human MDA-MB-435 cells assessed as body weight at 25 mg/kg twice weekly; format: organism-based; parameters: dose 25 mg/kg; conditions: in vivo
[23] = tested on: HeLa; test: Growth inhibition of human HeLa cells overexpressing beta-3 after 96 hrs incubation by sulforhodamine B technique; format: functional, cell-based
[24] = tested on: NCI60; test: Growth inhibition of human NCI60 cells after 96 hrs incubation by sulforhodamine B technique; format: functional, cell-based
[25] = tested on: MDA-MB-435; test: Cell cycle arrest in human MDA-MB-435 cells assessed as increase in accumulation at G2/M phase at IC50 concentration after 2 hrs by propidium iodide staining-based flow cytometry; format: functional
[26] = tested on: 4T1; conditions: Mus musculus, 25 mg/kg; remark: listed apart in the source
Description: Antitumor activity against mouse 4T1 cells expressing luciferase allografted in BALBc/J mouse assessed as suppression of tumor growth at 25 mg/kg twice weekly measured up to 30 days

[27] = target: Tubulin (Homo sapiens) (UniProt P68371+Q9H4B7+P0DPH7+P68366+Q13509+Q71U36+P04350+Q3ZCM7+P07437+P68363+Q9BQE3+Q6PEY2+Q13885+Q9BVA1+Q9BUF5); test: Displacement of [3H]-colchicine from tubulin (unknown origin) at 50 uM relative to control; format: protein-complex assay
[28] = species on record: Homo sapiens; test: Disruption of microtubule organization in human MDA-MB-435 cells at IC50 concentration after 2 hrs by immunofluorescence assay; format: cell-based
[29] = tested on: Mus musculus; test: Toxicity in athymic BALBc/J mouse xenografted with human MDA-MB-435 cells assessed as body weight at 30 mg/kg twice weekly; format: organism-based; parameters: dose 30 mg/kg; conditions: in vivo
[30] = tested on: U-251; test: Antitumor activity against human U251 cells xenografted into athymic NCr mouse assessed as decrease in tumor growth at 30 mg/kg twice weekly measured up to 34 days; format: functional, organism-based; parameters: dose 30 mg/kg
[31] = tested on: MDA-MB-435; test: Antitumor activity against human MDA-MB-435 cells xenografted into flank of athymic BALBc/J mouse assessed as decrease in tumor vascular density at 30 mg/kg twice weekly by CD31/PECAM-1 immunohistochemical staining; format: functional, organism-based; parameters: dose 30 mg/kg
[32] = tested on: MDA-MB-435; test: Antitumor activity against human MDA-MB-435 cells xenografted into flank of […] assessed as decrease in tumor growth at 30 mg/kg twice weekly measured up to 34 days; format: functional, organism-based; parameters: dose 30 mg/kg
[33] = tested on: Mus musculus; test: Toxicity in athymic NCr mouse at 30 mg/kg twice weekly measured up to 34 days; conditions: in vivo, 816 h

In the case of `CC(=O)O[C@@]12CO[C@@H]1C[C@H](O)[C@@]1(C)C(=O)[C@H](O)C3=C(C)[C@@H](OC(=O)[C@H](O)[C@@H](NC(=O)OC(C)(C)C)c4ccccc4)C[C@@](O)([C@@H](OC(=O)c4ccccc4)[C@H]21)C3(C)C.O.O.O` [DOCETAXEL], the inhibition [1] is reported as “Active”, the Activity [2] is reported as “Non-toxic” and the Activity [3] is reported as “Non-toxic”. The inhibition [4] was “Active”, the inhibition [5] was “Active” and the Activity [6] was “Non-toxic”. The inhibition [7] was “Active” and the inhibition [8] was “Active”.

In the case of `COc1ccc(Nc2nc(C)nc3c(Cc4ccccc4)c[nH]c23)c(OC)c1.Cl`, the IC50 [9] is reported as > 40 µM, the IC50 [10] is reported as > 5 µM and the IC50 [11] is reported as > 5 µM.

For `COc1ccc(N(C)c2nc(C)nc3c(Cc4ccccc4)c[nH]c23)cc1.Cl`, the Activity [12] was “Non-toxic”, the IC50 [13] was 2.9 µM and the Activity [14] was “Active”. For the same molecule, the inhibition [15] was “Active”, the IC50 [9] was 21 µM and the IC50 [16] was 0.28 µM. For the same molecule, the Activity [17] was “Active”, the inhibition [18] was “Active” and the inhibition [19] was “Active”. The inhibition [20] was “Active”, the Activity [21] was “Non-toxic” and the Activity [22] was “Non-toxic”. The IC50 [23] was 0.28 µM, the IC50 [10] was 1 µM and the “growth inhibition (GI)” value [24] was “Active”. The Activity [25] was “Active”, the inhibition [26] was “Active” and the inhibition [27] was 55%. The IC50 [11] was 0.7 µM and the Activity [28] was “Active”.

With `COc1ccc(N(C)c2nc(C)nc3cc[nH]c23)cc1.Cl` the IC50 [9] was 10 µM.

For `Cc1nc(N(C)c2ccccc2)c2[nH]cc(Cc3ccccc3)c2n1.Cl`, the IC50 [9] was > 20 µM, the IC50 [16] was > 10 µM and the IC50 [23] was > 10 µM.

In the case of `CC(=O)O[C@H]1C(=O)[C@@]2(C)[C@H]([C@H](OC(=O)c3ccccc3)[C@]3(O)C[C@H](OC(=O)[C@H](O)[C@@H](NC(=O)c4ccccc4)c4ccccc4)C(C)=C1C3(C)C)[C@]1(OC(C)=O)CO[C@@H]1C[C@@H]2O` [PACLITAXEL], the IC50 [16] is reported as 0.0053 µM, the IC50 [23] is reported as 0.016 µM and the IC50 [10] is reported as 0.01 µM. It also gave an IC50 [11] of 5 µM.

For `COc1ccc(/C=C\c2cc(OC)c(OC)c(OC)c2)cc1O` [COMBRETASTATIN A4], the IC50 [16] was 0.0018 µM and the IC50 [23] was 0.0025 µM.

For `COc1ccc(Nc2nc(C)nc3c(Cc4ccccc4)c[nH]c23)cc1.Cl`, the IC50 [9] was > 20 µM, the IC50 [16] was > 10 µM and the IC50 [23] was > 10 µM.

For `CCN(CC)CCNC(=O)c1c(C)[nH]c(/C=C2\C(=O)Nc3ccc(F)cc32)c1C` [SUNITINIB], the Activity [29] was “Non-toxic”, the inhibition [30] was “Active” and the inhibition [31] was “Active”. For the same molecule, the inhibition [32] was “Active” and the Activity [33] was “Non-toxic”.
